From US7901894B2, “Kinase inhibitors” (The Research Foundation of State University of New York, priority 1999, dated 2011)
*1 amine or outer side, *2 acyl side, *3 side chain or, on linkers, in order; H or OH if unused. Where a SMILES comes first, the peptide text is derived from it. [ ]: non-standard residue; d: D form. X2 = O=C(O)CC(CC(=O)O)NC[C@H](N[*:1])C(=O)[*:2]; Abu(4-PO3H2) = N[C@@H](CCP(=O)(O)O)C(=O)O; X1 = O=C([C@H](CNS(=O)(=O)O)N[*:1])[*:2]; M1 = not defined here

Columns and labels:
PKA [1] = molecular target: T1, PKA (Homo sapiens, UniProt P17612); assay: PKA Literature Mimetic assay; type: biochemical; conditions: for Ki: Literature Mimetic (L) conditions
Text: (§1) The boronic acid inhibitors 21-24 have two Arg residues in their sequence and therefore will bind to the phosphocellulose paper in addition to Kemptamide (although not as consistently or completely due to one less positive charge). Consequently, when analyzed as inhibitors, the amount of phosphorylated Kemptamide produced was not only counted, but also the amount of phosphorylated inhibitor simultaneously produced (e.g. see 26 below). The net result is that distorted IC50 curves are obtained which show net “stimulation” at higher inhibitor concentrations in some cases. […] The underlying substrate behavior of these “inhibitors” makes an accurate measurement of their inhibition potency impossible with the current assay. However, it does appear from the data that homologating/extending the boronic acid functionality with CH2 groups (homologations/extensions with boronic acid non-peptide src inhibitors may also be carried out) decreases the binding affinity and ability of the compound to function as a substrate.

PKA [2] = molecular target: T1, PKA; assay: PKA Cellular Mimetic assay; type: biochemical; conditions: Cellular Mimetic (C) conditions
Text: as §1

PKA [3] = molecular target: T1, PKA; assay: STAIRe method: form of the protein kinase the inhibitor binds best; type: biochemical
Text: This was a somewhat surprising result since these inhibitors are analogs of the “end product inhibitors” 1 and 12 which must bind simultaneously with MgADP, following phosphate transfer in the generally accepted reaction mechanism for protein kinases.

pp60^c-src = pp60^c-src (Homo sapiens, UniProt P12931); assay: src Cellular Mimetic assay (RR-SRC phosphorylation); conditions: for % Inhibition of 2 mM RR-src at Inhibitor Concentration ( ): Table IV; for inhibition at 1000 µM: read-out: % Inhibition of 2 mM RR-src phosphorylation by src, Cellular Mimetic
src = molecular target: T2, src (Homo sapiens, UniProt P12931); assay: src Literature Mimetic assay (RR-src phosphorylation); type: biochemical; conditions: Inhibitor 1 mM; read-out: % Inhibition of 2 mM RR-src phosphorylation by src, Literature Mimetic
T2 construct: purchased

[4] = system: T3, boronic acid-containing PKA pentapeptide inhibitor 21, Ac-RRGXI-NH2
T3 sequence: RRGXI

[5] = system: T4, boronic acid-containing PKA pentapeptide inhibitor 22, Ac-RRGXI-NH2
T4 sequence: RRGXI

[6] = system: ovarian tumor cells from tumor N015; assay: Patient tumor cell culture (ovarian tumors, abdominal carcinoma; tumor N015); type: cell-based, human
Text: The initial non-peptide Src inhibitors have also shown very encouraging results in four different series of cell culture assays. 1) In the NIH 60-tumor cell panel assay, broad activity (as one would expect for a Src inhibitor) was seen against the tumor cell lines, including the prostate lines. […] […].

p56^lck = p56^lck (Homo sapiens, UniProt P06239); conditions: analyzed with p56^lck; cited from earlier work
[7] = molecular target: cAMP-dependent protein kinase (PKA); assay: cell-based or functional assay
[8] = molecular target: cAMP-dependent protein kinase (PKA); assay: PKA kinase inhibition assay with Kemptamide substrate, Cellular Mimetic conditions, 0 h preincubation
[9] = molecular target: cAMP-dependent protein kinase (PKA); assay: PKA kinase inhibition assay with Kemptamide substrate, Literature Mimetic conditions, 0 h preincubation
[10] = molecular target: cAMP-dependent protein kinase (PKA); assay: PKA kinase inhibition assay, Literature Mimetic conditions
[11] = molecular target: cAMP-dependent protein kinase (PKA); assay: PKA kinase inhibition assay, Cellular Mimetic conditions; reference: phosphate inhibitor 1
[12] = molecular target: cAMP-dependent protein kinase (PKA); assay: PKA kinase inhibition assay, Literature Mimetic conditions; reference: phosphate inhibitor 1
[13] = molecular target: cAMP-dependent protein kinase (PKA); assay: PKA kinase inhibition assay (Ki, Table I); reference: the same inhibitor under Literature Mimetic conditions
[14] = molecular target: cAMP-dependent protein kinase (PKA); assay: PKA kinase inhibition assay, Literature Mimetic conditions; reference: sulfamic acid inhibitor 8

pp60^c-src, sequence (P12931 whole entry): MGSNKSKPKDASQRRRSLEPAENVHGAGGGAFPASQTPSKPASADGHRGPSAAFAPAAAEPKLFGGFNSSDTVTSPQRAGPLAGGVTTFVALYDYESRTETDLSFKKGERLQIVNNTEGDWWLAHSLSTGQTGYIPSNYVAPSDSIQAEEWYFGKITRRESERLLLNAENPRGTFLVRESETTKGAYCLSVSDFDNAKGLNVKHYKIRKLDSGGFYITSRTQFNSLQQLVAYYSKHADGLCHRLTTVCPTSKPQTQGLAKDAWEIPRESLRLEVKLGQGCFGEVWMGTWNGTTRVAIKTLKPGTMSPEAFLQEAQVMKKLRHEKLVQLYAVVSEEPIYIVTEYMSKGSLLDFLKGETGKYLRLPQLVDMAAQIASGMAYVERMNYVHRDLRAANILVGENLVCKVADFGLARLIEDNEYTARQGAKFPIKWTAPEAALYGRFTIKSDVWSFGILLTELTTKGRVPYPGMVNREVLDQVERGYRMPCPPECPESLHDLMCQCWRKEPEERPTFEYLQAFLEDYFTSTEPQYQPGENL
T2 sequence (P12931 whole entry): as above
p56^lck, sequence (P06239 whole entry, species assumed): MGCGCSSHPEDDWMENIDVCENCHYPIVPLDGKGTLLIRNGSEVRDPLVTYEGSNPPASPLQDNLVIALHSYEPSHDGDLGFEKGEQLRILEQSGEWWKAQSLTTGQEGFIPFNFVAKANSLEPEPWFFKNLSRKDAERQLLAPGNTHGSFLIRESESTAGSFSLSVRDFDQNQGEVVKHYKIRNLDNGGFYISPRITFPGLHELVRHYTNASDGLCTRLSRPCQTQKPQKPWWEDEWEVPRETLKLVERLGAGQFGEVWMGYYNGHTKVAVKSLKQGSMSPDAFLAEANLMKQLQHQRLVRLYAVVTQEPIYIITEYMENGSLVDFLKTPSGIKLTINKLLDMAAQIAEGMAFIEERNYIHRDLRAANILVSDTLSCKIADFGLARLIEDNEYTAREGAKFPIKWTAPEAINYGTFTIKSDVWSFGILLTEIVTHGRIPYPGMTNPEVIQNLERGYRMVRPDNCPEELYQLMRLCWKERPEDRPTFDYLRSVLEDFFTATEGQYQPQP

In the case of CC[C@H](C)[C@H](NC(=O)[C@H](CNS(=O)(=O)O)NC(=O)CNC(=O)[C@H](CCCNC(=N)N)NC(=O)[C@H](CCCNC(=N)N)NC(C)=O)C(N)=O [compound 8] (Ac-RRG[X1]I-NH2), the “binds more tightly than end product phosphate inhibitor 1” value (PKA [1]; Literature Mimetic conditions) is reported as 31 times, the “binds more tightly than end product phosphate inhibitor 1” value (PKA [2]) is reported as 108 times and the “enzyme form bound best (STAIRe methodology)” value (PKA [3]) is reported as “bind best when MgATP (not MgADP or no nucleotide) is also bound”.

For CC[C@H](C)[C@H](NC(=O)[C@H](CC(O)P(=O)(O)O)NC(=O)CNC(=O)[C@H](CCCNC(=N)N)NC(=O)[C@H](CCCNC(=N)N)NC(C)=O)C(N)=O (single isomer, unassigned) [inhibitor 3A], the Ki (PKA [1]) was 18 µM.

In the case of OB(O)c1cc2ccccc2o1 [compound 35], the “% Inhibition of 2 mM RR-src at Inhibitor Concentration ( )” value (“% Inhibition of 2 mM RR-src” below) (pp60^c-src; 100 μM inhibitor) is reported as 10 (100 μM) %.

Work on NC(=O)C(N)C(=O)O (centres unmarked) yielded an inhibition at 1000 µM (src) of 24% and an inhibition at 1000 µM (pp60^c-src) of 0%.

NC(=O)CC(=O)O gave an inhibition at 1000 µM (src) of 20% and an inhibition at 1000 µM (pp60^c-src) of 28%.

Molecule CC[C@H](C)[C@H](NC(=O)[C@H](CC(O)P(=O)(O)O)NC(=O)CNC(=O)[C@H](CCCNC(=N)N)NC(=O)[C@H](CCCNC(=N)N)NC(C)=O)C(N)=O (single isomer, unassigned) [inhibitor 3B] has a Ki (PKA [1]) of 72 µM.

In the case of NS(=O)(=O)c1ccc2ccccc2c1, the “% Inhibition of 2 mM RR-src” value (pp60^c-src; 100 μM inhibitor) is reported as 0 (100 μM) %.

For O=S(=O)(O)c1ccc2ccccc2c1, the “% Inhibition of 2 mM RR-src” value (pp60^c-src; 1 mM inhibitor) was 0 (1 mM) %.

In the case of cAMP-dependent protein kinase (PKA), the “phosphorylation by PKA on incubation for up to 4 hours without Kemptamide” value [4] is reported as “both 21 and 22 function as substrates with the D-diastereomer 22 being phosphorylated faster” and the “phosphorylation by PKA on incubation for up to 4 hours without Kemptamide” value [5] is reported as “both 21 and 22 function as substrates with the D-diastereomer 22 being phosphorylated faster”.

O=P(O)(O)CO gave an inhibition at 1000 µM (src) of 51% and an inhibition at 1000 µM (pp60^c-src) of 0%.

With CC[C@H](C)[C@H](NC(=O)[C@H](CNC(CC(=O)O)CC(=O)O)NC(=O)CNC(=O)[C@H](CCCNC(=N)N)NC(=O)[C@H](CCCNC(=N)N)NC(C)=O)C(N)=O (Ac-RRG[X2]I-NH2) the Ki (PKA [1]) was 45 µM.

In the case of CC(=O)O[C@H]1C(=O)[C@@]2(C)[C@H]([C@H](OC(=O)c3ccccc3)[C@]3(O)C[C@H](OC(=O)[C@H](O)[C@@H](NC(=O)c4ccccc4)c4ccccc4)C(C)=C1C3(C)C)[C@]1(OC(C)=O)CO[C@@H]1C[C@@H]2O [taxol], the “efficacy in tumor cell culture compared with other drugs” value [6] is reported as “more effective than etoposide & cisplatin”.

For COC(=O)c1cc2ccccc2cc1N [Compd 1d], the “% Inhibition at 100 μM (std. dev.)” value (pp60^c-src; Table VI, hydroxynaphthalene series, 198 μM ATP) was “inactive”.

Molecule NC(=O)C(O)C(=O)O (centres unmarked) has an inhibition at 1000 µM (src) of 64% and an inhibition at 1000 µM (pp60^c-src) of 5%.

With OB(O)c1ccc2ccccc2c1 [compound 27] the “mode of inhibition relative to ATP” value (pp60^c-src; ATP increased up to 1 mM) was “not ATP-competitive”.

With OB(O)c1cccc2ccccc12 the “% Inhibition of 2 mM RR-src” value (pp60^c-src; 100 μM inhibitor) was 0 (100 μM) %.

In the case of COc1cccc2c1C(=O)c1c(O)c3c(c(O)c1C2=O)C[C@@](O)(C(=O)CO)C[C@@H]3O[C@H]1C[C@H](N)[C@H](O)[C@H](C)O1 [doxorubicin], the “efficacy in tumor cell culture compared with other drugs” value [6] is reported as “more effective than etoposide & cisplatin”.

In the case of NS(=O)(=O)c1cccc2ccccc12, the “% Inhibition of 2 mM RR-src” value (pp60^c-src; 100 μM inhibitor) is reported as 0 (100 μM) %.

In the case of CC[C@H](C)[C@H](NC(=O)[C@H](CCP(=O)(O)O)NC(=O)CNC(=O)[C@H](CCCNC(=N)N)NC(=O)[C@H](CCCNC(=N)N)NC(C)=O)C(N)=O (Ac-RRG[Abu(4-PO3H2)]I-NH2), the Ki (PKA [1]) is reported as 76 µM.

In the case of Cc1cc(O)c2c(c1)C(=O)c1cc(O)cc(O)c1C2=O [Emodin], the “mode of inhibition with respect to ATP” value (p56^lck) is listed as “ATP-competitive”.

Ac-RRGAI-NH2 [pentapeptide pseudosubstrate inhibitor 20, Ac-RRGAI-NH2] gave an IC50 µM (cond. C, 0 h preincubation), PKA inhibition [7] of 41 µM, an IC50 µM (cond. C, 4 h preincubation), PKA inhibition [7] of 50 µM and an IC50 µM (cond. L, 0 h preincubation), PKA inhibition [7] of 278 µM. It also gave an IC50 µM (cond. L, 4 h preincubation), PKA inhibition [7] of 417 µM, a Ki [8] of 25 µM and a Ki [9] of 9 µM.

B1: PKA pentapeptide inhibitor 8 (sulfamic acid), Ac-Arg-Arg-Gly-Ala(M1)-Ile-NH2 (peptide)
peptide: Ac-RRGAI-NH2
modifications: not fully specified (residue 4); printed as Ac-Arg-Arg-Gly-Ala(M1)-Ile-NH2; also: M1 = sulfamic acid on side chain of residue 4
B1 showed a Ki [10] of 0.16 µM, a fold tighter binding than end product phosphate inhibitor 1 [11] of 108 times and a fold tighter binding than end product phosphate inhibitor 1 [12] of 31 times.

B2: PKA pentapeptide inhibitor 11, Ac-Arg-Arg-Gly-Ala(M1)-Ile-NH2 (peptide)
peptide: Ac-RRGA(M1)I-NH2
modifications: not fully specified; printed as Ac-Arg-Arg-Gly-Ala(M1)-Ile-NH2; reading uncertain
B2 gave a Ki [10] of 45 µM.

B3: PKA pentapeptide inhibitor 10, Ac-Arg-Arg-Gly-Ala(M1)-Ile-NH2 (peptide)
peptide: Ac-RRGA(M1)I-NH2
modifications: reading uncertain; also: M1 group structure shown only in a drawing, printed as Ac-Arg-Arg-Gly-Ala(M1)-Ile-NH2
Work on B3 yielded a fold change in potency, Literature Mimetic to Cellular Mimetic conditions [13] of 3 fold.

B4: PKA pentapeptide inhibitor 1 (end product phosphate inhibitor), Ac-Arg-Arg-Gly-Ala(M1)-Ile-NH2 (peptide)
peptide: Ac-RRGAI-NH2
modifications: not fully specified (residue 4); printed as Ac-Arg-Arg-Gly-Ala(M1)-Ile-NH2; also: M1 = phosphate group on side chain of residue 4
With B4 the fold change in potency, Literature Mimetic to Cellular Mimetic conditions [13] was 108 fold.

B5: PKA pentapeptide inhibitor 7 (sulfonamide), Ac-Arg-Arg-Gly-Ala(M1)-Ile-NH2 (peptide)
peptide: Ac-RRGAI-NH2
modifications: not fully specified (residue 4); printed as Ac-Arg-Arg-Gly-Ala(M1)-Ile-NH2; also: M1 = sulfonamide on side chain of residue 4
Molecule B5 has a Ki [10] of 300 µM and a fold less potent than inhibitor 8 [14] of 1880 times.

B6: PKA pentapeptide inhibitor 2 (phosphonate), Ac-Arg-Arg-Gly-Ala(M1)-Ile-NH2 (peptide)
peptide: Ac-RRGAI-NH2
modifications: not fully specified (residue 4); printed as Ac-Arg-Arg-Gly-Ala(M1)-Ile-NH2; also: M1 = phosphonate on side chain of residue 4
Work on B6 yielded a Ki [10] of 76 µM.

B7: PKA pentapeptide inhibitor 3A (hydroxyphosphonate, diastereomer A), Ac-Arg-Arg-Gly-Ala(M1)-Ile-NH2 (peptide)
peptide: Ac-RRGA(M1)I-NH2
modifications: reading uncertain; also: diastereomer A at M1, printed as Ac-Arg-Arg-Gly-Ala(M1)-Ile-NH2
Work on B7 yielded a Ki [10] of 18 µM.

B8: PKA pentapeptide inhibitor 3B (hydroxyphosphonate, diastereomer B), Ac-Arg-Arg-Gly-Ala(M1)-Ile-NH2 (peptide)
peptide: Ac-RRGA(M1)I-NH2
modifications: reading uncertain; also: diastereomer B at M1, printed as Ac-Arg-Arg-Gly-Ala(M1)-Ile-NH2
For B8, the Ki [10] was 72 µM.
